Earlier results on one compound are cited in patent publication US20210023267A1, “POLYMER-PERMEATED GRAFTS AND METHODS OF MAKING AND USING THE SAME” (BIOAESTHETICS CORPORATION, priority 2018, published 2021).

The series has as its system S. aureus.

Converted amounts (≈) assume the structure as drawn. Where two headings read alike, the source gives them in different places.

As to `CN[C@H](CC(C)C)C(=O)N[C@H]1C(=O)N[C@@H](CC(N)=O)C(=O)N[C@H]2C(=O)N[C@H]3C(=O)N[C@H](C(=O)N[C@H](C(=O)O)c4cc(O)cc(O)c4-c4cc3ccc4O)[C@H](O)c3ccc(c(Cl)c3)Oc3cc2cc(c3O[C@@H]2O[C@H](CO)[C@@H](O)[C@H](O)[C@H]2O[C@H]2C[C@](C)(N)[C@H](O)[C@H](C)O2)Oc2ccc(cc2Cl)[C@H]1O` [vancomycin], the minimum inhibitory concentration by setting is: (S. aureus) 1 µg/mL (≈ 0.69 µM); (S. aureus strains with complete resistance to vancomycin) 16 µg/mL (≈ 11 µM).
